Laboratory results as given in patent publication US8163795B2, “Chroman derivatives, medicaments and use in therapy” (Marshall Edwards, Inc., priority 2004, dated 2012).
Where two headings read alike, the source gives them in different places.

Experiments:
A2058 melanoma cell line = test: Proliferation assay (MTT); type: cell-based; details: Homo sapiens, A2058, Table 15; melanoma A2058
MM200 melanoma cell line = test: Proliferation assay (MTT); type: cell-based; details: read-out: IC50
[1] = system: CP70 ovarian cancer cell line; test: Proliferation assay (MTT); type: cell-based; details: Table 2.2 (further studies); Ovarian CP70; read-out: IC50
[2] = system: HPAC (CRL-2119) pancreatic cancer cell line; test: Proliferation assay (MTT); type: cell-based, human; details: Homo sapiens, HPAC, Table 2.2; Pancreatic HPAC; read-out: IC50
cancer cell lines = test: Proliferation assays, statements over several cancer cell lines; type: cell-based; details: all melanoma cell lines tested to date
Experimental: (§1) IC50 values were determined for each cell line. Cells were seeded in 96-well plates at an appropriate cell density as determined from growth kinetics analysis and cultured for 5 days in the absence and presence of the test compounds. Cell proliferation was assessed after the addition of 20 μl of 3-4,5 dimethylthiazol-2,5-diphenyl tetrazolium bromide (MTT, 2.5 mg/ml in PBS, Sigma) for 3-4 hrs at 37° C. according to manufacturer's instructions. IC50 values were calculated from semi-log plots of % of control proliferation on the y-axis against log dose on the x-axis.

TXB2 = test: Eicosanoid synthesis in LPS-stimulated murine macrophages (RAW 264.7); type: cell-based, mouse; details: 10 μM; negative values indicate inhibition
Experimental: (§2) The mouse macrophage cell line RAW 264.7 was cultured in DMEM supplemented with foetal calf serum (FCS), 2 mM glutamine and 50 U/ml penicillin/streptomycin. Subconfluent cells were detached from the flask by gentle scraping and 24-well plates seeded at 5×10^5 cells per well and allowed to adhere for 1 hr. Cells were then treated either test compound at a concentration of 10 μM (in 0.025% DMSO) or vehicle alone, and incubated for 1 hr. LPS 50 ng/ml (LPS—Sigma-Aldrich) was then added. After incubation for 16 hrs, culture media was collected and stored at −80° C. for ecosanoid measurements using enzyme immunometric assays (PGE2 and TXB2—Cayman Chemical).
(§3) Table 16: Percentage change in eicosanoid synthesis after incubating test compound at 10 μM compared with incubation with vehicle alone.

PGE2 = test: as above; type: cell-based, mouse; details: 10 μM; negative values indicate inhibition
Experimental: as §2, §3

[3] = system: MDA-MB-468 breast cancer cell line; test: Proliferation assay (MTT); type: cell-based; details: Homo sapiens, MDA-MB-468, Table 2.2; Breast MDA-MB-468; read-out: IC50
MM96L melanoma cell line = test: Proliferation assay (MTT); type: cell-based; details: Homo sapiens, Table 15
Experimental: (§4) All cultures were supplemented with 10% FCS (fetal calf serum CSL, Australia), penicillin (100 U/ml), streptomycin ([…]), L-glutamine (2 mM) and sodium bicarbonate (1.2 g/L), and cultured at 37° C. in a humidified atmosphere of 5% CO2. All cell lines were purchased from ATCC (Maryland, USA) except where noted.
as §1

IGR-3 (Melanoma) = test: Proliferation assay (MTT); type: cell-based; details: Table 15; melanoma IgR3
Experimental: as §4, §1

HT-29 (Colorectal) = test: Proliferation assay (MTT); type: cell-based; details: Homo sapiens, HT-29, Table 2.2; Colorectal HT-29
Experimental: as §4, §1

[4] = system: PC3 prostate cancer cell line; test: Proliferation assay (MTT); type: cell-based; details: Table 2.2
Experimental: as §4, §1

CCRF-CEM (Leukemic) = test: Proliferation assay (MTT); type: cell-based; details: Homo sapiens, CCRF-CEM, Table 2.2; Leukaemia CCRF-CEM
Experimental: as §4, §1

4405 melanoma cell line = test: Proliferation assay (MTT); type: cell-based; details: Table 15; melanoma 4405
Experimental: as §4, §1

HTB-138 (Glioma) = test: Proliferation assay (MTT); type: cell-based; details: Table 2.2; Glioma HTB-138
Experimental: as §4, §1

NCI-H460 (Lung) = test: Proliferation assay (MTT); type: cell-based; details: Homo sapiens, NCI-H460, Table 2.2; NSC Lung NCI-H460
Experimental: as §4, §1

RM melanoma cell line = test: Proliferation assay (MTT); type: cell-based; details: Table 15
Experimental: as §4, §1

[5] = system: SKMe128 melanoma cell line; test: Proliferation assay (MTT); type: cell-based; details: Table 15
Experimental: as §4, §1

[6] = system: Neonatal foreskin fibroblasts (NFF); test: Proliferation assay (MTT), normal cell toxicity; type: cell-based, Human
Experimental: (§5) The normal cell line NFF (neonatal foreskin fibroblasts) was a sift from Dr. Peter Parsons (Queensland Institute of Medical Research). RK (rabbit kidney) cells were obtained from Miller Whalley (Macquarie University). Both cell lines were cultured in RPMI supplemented with 10% FCS(CSL, Australia), penicillin (100 U/ml), streptomycin ([…]), L-glutamine (2 mM) and sodium bicarbonate (1.2 g/L), and cultured at 37° C. in a humidified atmosphere of 5% CO2.
as §1

rabbit kidney cells (RK) = test: Proliferation assay (MTT), normal cell toxicity; type: cell-based
Experimental: as §5, §1

HTB-13.8 (Glioma) = test: HHC as chemosensitiser; type: cell-based; details: Glioma HTB-13.8
Text: (§6) HHC was screened as chemosensitiser against a panel cell lines representative of a range cancer indications using a panel of cytotoxics commonly used in the treatment of cancer.

CP70 (Ovarian) = test: HHC as chemosensitiser; type: cell-based
Text: as §6

PC3 (Prostate) = test: HHC as chemosensitiser; type: cell-based
Text: as §6

MM96L (Melanoma) = test: HHC as chemosensitiser; type: cell-based
Text: as §6

HPAC (Pancreatic) = test: HHC as chemosensitiser; type: cell-based
Text: as §6

MDA-468 (Breast) = test: HHC as chemosensitiser; type: cell-based; details: Breast MDA-468
Text: as §6

[7] = system: cancer cell lines from different pathologies; test: HHC as chemosensitiser, statements by cancer indication; type: cell-based
Text: as §6

[8] = HMC and HHC pharmacokinetics, oral, human patients; type: in vivo; details: plasma
Experimental: Human patients were orally dosed with 200 mg of either HMC or HHC. For each challenged patient, blood was taken over a 6 hour period and the results averaged to characterise the plasma pharmacokinetics.

[9] = human, po, humans dosed orally with 200 mg

IC50 (A2058 melanoma cell line): 340 nM
IC50 (MM200 melanoma cell line; Table 2.2, Melanoma MM200): 600 ± 300 nM
IC50 (MM200 melanoma cell line; Table 15, melanoma MM200, monotherapy): 660 ± 280 nM
IC50 [1]: 1100 ± 900 nM
IC50 [2]: 31600 ± 27000 nM
IC50 (cancer cell lines): < 1000 nM
IC50 [3]: 1000 ± 100 nM
IC50 (MM96L melanoma cell line): 200 ± 90 nM
IC50 (IGR-3 (Melanoma)): 200 nM
IC50 (HT-29 (Colorectal)): 2500 ± 1000 nM
IC50 [4]: 880 ± 400 nM
IC50 (CCRF-CEM (Leukemic)): 600 ± 10 nM
IC50 (4405 melanoma cell line): 500 nM
IC50 (HTB-138 (Glioma)): 520 ± 100 nM
IC50 (NCI-H460 (Lung)): 500 ± 100 nM
IC50 (RM melanoma cell line): 390 ± 280 nM
IC50 [5]: 360 ± 340 nM
Cmax [8, 9]: 341 ng/mL
Tmax [8, 9]: 2.67 h
t1/2 ([8]; humans dosed orally with 200 mg): 3.26 h
half-life ([8]; human patients, 200 mg oral, initial results): 3.26 h
SMILES: Oc1ccc(C2COc3cc(O)ccc3C2c2ccc(O)cc2)cc1 (stereo not drawn) [Compound 11, 3-(4-hydroxyphenyl)-4-(4-hydroxyphenyl)chroman-7-ol]
Percentage change in TXB2 synthesis vs vehicle alone (TXB2): 51.4%
Percentage change in PGE2 synthesis vs vehicle alone (PGE2): 27.2%
IC50 ([6]; Homo sapiens, Fibroblast, Table 1, Neonatal Foreskin Fibroblasts (Human, NFF), read-out: IC50): 60800 nM
IC50 ([6]; NFF): non-toxic
IC50 (rabbit kidney cells (RK); Oryctolagus cuniculus, Table 1, Rabbit Kidney, read-out: IC50): > 150000 nM
IC50 (rabbit kidney cells (RK); rabbit kidney cells): non-toxic
Synergy of HHC with Cisplatin (HTB-13.8 (Glioma)): n.o. (n.o. = not observed)
Synergy of HHC with Gemcitabine (HTB-13.8 (Glioma)): SSSSS (SSSSS = Synergy)
Synergy of HHC with Paclitaxel (HTB-13.8 (Glioma); listed as HHC): n.o. (n.o. = not observed)
Synergy of HHC with Cisplatin (CP70 (Ovarian)): SSSSS (SSSSS = Synergy)
Synergy of HHC with Gemcitabine (CP70 (Ovarian)): SSSSS (SSSSS = Synergy)
Synergy of HHC with Paclitaxel (CP70 (Ovarian); listed as HHC): n.o. (n.o. = not observed)
Synergy of HHC with Cisplatin (PC3 (Prostate)): SSSSS (SSSSS = Synergy)
Synergy of HHC with Gemcitabine (PC3 (Prostate)): SSSSS (SSSSS = Synergy)
Synergy of HHC with Paclitaxel (PC3 (Prostate)): n.o. (n.o. = not observed)
chemosensitisation to cisplatin, carboplatin and decarbazine (MM96L (Melanoma); MM96L melanoma cell line): strongly chemosensitise
Synergy of HHC with Carboplatin (MM96L (Melanoma); Melanoma MM96L): SSSSS (SSSSS = Synergy)
Synergy of HHC with Cisplatin (MM96L (Melanoma); Melanoma MM96L): SSSSS (SSSSS = Synergy)
Synergy of HHC with Dacarbazine (MM96L (Melanoma); Melanoma MM96L): SSSSS (SSSSS = Synergy)
Synergy of HHC with Cisplatin (HPAC (Pancreatic)): n.o. (n.o. = not observed)
Synergy of HHC with Gemcitabine (HPAC (Pancreatic)): SSSSS (SSSSS = Synergy)
Synergy of HHC with Paclitaxel (HPAC (Pancreatic)): n.o. (n.o. = not observed)
Synergy of HHC with Gemcitabine (MDA-468 (Breast)): SSSSS (SSSSS = Synergy)
synergy HHC:paclitaxel ([7]; breast and colorectal cancer, and melanoma cell lines): Moderate synergy
synergy HHC:cisplatin ([7]; colorectal cancer cell lines): mild synergy
synergy HHC:cisplatin ([7]; ovarian and prostate cancer): Strong synergy
synergy HHC:paclitaxel ([7]; ovarian cancer and glioma cell lines): Equivocal synergy
chemosensitisation to gemcitabine ([7]; ovarian, prostate, breast and pancreatic cancers, and glioma): strongly chemosensitise
synergy HHC:cisplatin ([7]; pancreatic cancer and glioma): synergy was not observed
synergy HHC:paclitaxel ([7]; prostate and pancreatic cancer cell lines): no evidence of synergy
